Measured values taken from patent publication US20230285357A1, “COMPOSITIONS AND METHODS FOR […] CELLS” (The Regents of the University of California, priority 2020, published 2023).

Assays:
[1] = test system: eGFP positive cells from SB216763-treated Flk1-eGFP osteoblasts; assay: Tube formation assay in vitro; type: cell-based, mouse
Experimental: Then, same cells in a model of hindlimb ischemia in nude mice to evaluate the capacity of eGFP positive cells in vascular repair were tested. After ligation of the proximal and distal femoral artery, eGFP positive cells were transplanted (FIG. 2, Part F). Human aortic endothelial cells (HAECs) and osteoblasts were used as controls.
Tube formation assays in vitro was then tested. […] Cells into hindlimb ischemia mouse model were transplanted.

[2] = test system: aortic cells of Osx-GfptgMgp−/− mice; assay: Osteoblastic-lineage tracing in Osx-GfptgMgp−/− mice, FACS of aortic cells; type: in vivo, mouse; details: Osx-GfptgMgp−/− mice treated for 2 weeks
Experimental: Then, mice were treated with or without SB216763 for 2 weeks. […] Then, the alteration of GFP and CD31 double positive cells (GFP+CD31+) were characterized after SB216763 treatment. […] Same numbers of cells of each group were used to perform a transplantation experiment to examine the capacity of bone formation by using bone formation assay in vivo.
FACS analysis was performed as previously described. The cells were stained with fluorescein isothiocyanate (FITC)-, phycoerythrin (PE)-, or Alexa Fluor 488 (AF-488)-conjugated antibodies against CD31 and VE-cadherin (all from BD biosciences, 550274 and 562243), osterix (Santa Cruz Biotechnology, sc-22536). Nonspecific fluorochrome- and isotype-matched IgGs (BD Pharmingen) served as controls.

[3] = test system: bone tissue of wild type mice; assay: Effect of long treatment on bone formation in wild type mice; type: in vivo, mouse; details: wild type mice at 8 weeks of age, 5 ug/g daily for 8 weeks
Experimental: To determine if long-treatment of SB216763 has any effects on bone formation, wild type mice were treated at 8 weeks of age with SB216763 (5 ug/g daily) for 8 weeks. After treatment, the bone tissue was examined by micro-CT imaging and immunostaining.
MicroCT imaging was performed at the Crump Imaging Center at UCLA. All the samples were scanned on a high-resolution, volumetric microCT scanner (CT125). The image data were acquired with the following parameters: 10 μm isotropic voxel resolution; 200 ms exposure time; 2,000 views and 5 frames per view. The microCT-generated DICOM files were used to analyze the samples and to create volume renderings of the regions of interest. The raw data files were viewed using the MicroView 3-D volume viewer and analysis tool (GE Healthcare) and AltaViewer™ Software. Additionally, images of the samples were generated using SCIRun (Scientific Computing and Imaging Institute).

Cn1cc(C2=C(c3ccc(Cl)cc3Cl)C(=O)NC2=O)c2ccccc21 [SB216763]
tube formation ([1]; SB216763-treated cells with β-catenin depletion): decrease of tube formation
tube formation ([1]; eGFP positive cells from treated osteoblasts): robust tube formation
aortic cells co-expressing GFP and CD31, FACS [2]: decreased number of cells that co-expressed GFP and CD31
aortic cells expressing only CD31, FACS [2]: increased number of cells that only expressed CD31
hemorrhage in the bone tissue [3]: had not detected any hemorrhage
microstructure of bone tissues and vasculature, immunostaining of CD31 and osterix [3]: no changes in the microstructure of bone tissues and vasculature
relative bone volumes and connectivity densities, micro-CT ([3]; treated vs non-treated): no differences
